Data published in patent US20210052580A1 (ST IP Holding AG, priority 2018, published 2021).
≈ marks a conversion by molar mass, not a printed value. Where two headings read alike, the source gives them in different places.

Tests used:
[1] = test system: primary human gingival epithelial cells (HGEPp); assay: TACS MTT cell viability assay, H2O2-induced oxidative stress; assay type: cell-based
Method: Pooled primary HGEPps were propagated in CnT-Prime epithelial culture medium provided by CellnTec on 100 mm petri dishes coated with 30 mg/ml Type I rat tail collagen (BD Biosciences) diluted in Dulbecco's phosphate-buffered saline (DPBS). […] The cells were harvested when they reached 70-90% confluency as observed by light microscopy. For routine cultivation, the medium was changed every 3 days. For both the cell viability and ROS assays, the cells from passages 3-7 were seeded at 5×10 3, 2.5×10 4, 5×10^4 cells/cm 2 density to grow cell monolayers in 24-well flat-bottomed tissue culture plates and acclimated overnight at 37° C.
Preparation of Dosing Solutions • 1. Recrystallized oltipraz was received as a powder from Supportive Therapeutics and a 100 mM DMSO stock was prepared. Further dilutions were prepared in DMSO from the 100 mM DMSO stock and each DMSO dilution was then added into 10 mL of Dulbecco's phosphate-buffered saline to arrive at final concentrations of 10, 50, and 100 μM. • 2. The Normal (Control) group contained saline with the same percentage of DMSO as the treated group. • 3. All dosing solutions contained 0.3% of DMSO which is well below the maximum tolerated DMSO percent of 0.8% for HGEPp cells. • 4. Formulated oltipraz crystals and control powder were received as a powder and a 500 mM DMSO stock solution was prepared for each powder. • 5.
Cell Survival Assay (TACS MTT Kit) • 1. Plate cell concentration was selected to be 6.25×10^5/ml to yield an OD absorbance within the linear portion of the control curve. • 2. Once the HGEPp cells were cultured and ready on the microplate, the media was removed from all the wells and discarded. The cells were washed gently with DPBS 2-3 times and the last wash removed and discarded. • 3. Added 10 ul of MTT reagent to each well. • 4. Incubated the plate for 6 hours at 37° C. Viewed the cells to confirm the appearance of intracellular precipitate using an inverted microscope. • 5. Added 100 ul of Detergent Reagent to all wells, including the control wells taking care not to shake the plates • 6. Left the plate covered in the dark at room temperature overnight. • 7. Removed the plate cover and measured the absorbance of the wells, including the blanks at 570 nm. • 8. Determined the average values from triplicate readings after subtracting the average value for the blanks.
HGEPp cells were exposed to different concentrations of H2O2 for 4 h to examine H2O2-induced oxidative stress. The cells were exposed to 0-0.6 mM H2O2 for 4 h and cell viability was evaluated using the TACS MTT Cell Proliferation Assay Kit. The percentage of cell survival was determined using the ratio of the optical density (OD) of the test sample to the OD of the control×100%. […] The data is mean+/−SD of 3 experiments in 6 replicate wells.
Normal control cells were cultured in DPBS containing 0.3% DMSO. Positive Control (PC): oxidative stressed group cells after treatment with 0.3 mM H2O2 for 4 h. […] The percentage of cell survival was determined by the ratio of the optical density (OD) of the test samples to the OD of the control×100%.
Pooled primary HGEPp's were propagated in CnT-Prime epithelial culture medium provided by CellnTec on 100 mm petri dishes coated with 30 mg/ml Type I rat tail collagen (BD Biosciences) diluted in Dulbecco's phosphate-buffered saline (DPBS). […] The cells were harvested when they reached 70-90% confluency as observed by light microscopy. For routine cultivation, the medium was changed every 3 days.

[2] = test system: primary human gingival epithelial cells (HGEPp); assay: OxiSelect intracellular ROS assay, H2O2-treated cells; assay type: cell-based
Text: 2. measure the effect of recrystallized oltipraz and formulated oltipraz on hydroxyl, peroxyl and other reactive oxygen species within HGEPp cells, using Cell Biolabs' OxiSelect™ Intracellular ROS Assay Kit. This assay employs the cell-permeable fluorogenic probe 2′,7′-dichlorodihydrofluorescin diacetate (DCFH-DA) which diffuses into cells and is deacetylated by cellular esterases to a nonfluorescent DCFH which is then rapidly oxidized to highly fluorescent 2′,7′-dichlorodihydrofluorescein (DCF) by ROS.
Prepared and mixed all reagents thoroughly before use. […] Once the HGEPp cells were cultured and ready on a microplate, the media was removed from all the wells and discarded. Washed the cells gently with DPBS 2-3 times. Removed the last wash and discarded it. • 3. Added 100 μL of 1×DCFH-DA/media solution to the cells. […] Fluorescence was read on a Fluorescence Plate Reader after 1 hour. […] Transferred 150 μL of the mixture to a fresh 24-well plate for fluorescence measurements at 530 nm. […]
Intracellular ROS was measured using a Spectramax M3 microplate reader.
Prepared and mixed all reagents thoroughly before use. […] Once the HGEPp cells were cultured and ready on a microplate, the media was removed from all the wells and discarded. […] Transferred 150 μL of the mixture to a fresh 24-well plate for fluorescence measurements at 530 nm.
Intracellular ROS was measured using a Spectramax M3 microplate reader. […]

rat cortical neurons = assay type: cell-based; conditions: MK801 10 μM
Method: The objective of the experiments in this Example was to explore the protective effects of three compounds in the neurotoxicity induced by oxygen glucose deprivation. A multiparametric cell-based protocol is used in this Example in order to determine the mechanisms of action. The assay was applied to “freshly isolated” rat cortical neurons cultured in 96-well-plates and exposed to the compounds at 100 μg/ml. Moreover, some cells were treated with the compounds in addition with atovaquone (100 μg/ml).
In vitro ischemic injury was induced in rat primary neuronal culture by oxygen-glucose deprivation for 2 hours. Neurons were incubated with the compounds during 1 hour eighteen hours prior to the OGD induction. MK801 10 μM was used as positive neuroprotection control. After the treatments, supernatants were collected for measuring extracellular LDH levels (plasma membrane integrity determination) and cells were simultaneously incubated with three optically compatible fluorescent dyes, and subsequently analyzed with BD Pathway 855 (Becton Dickinson). Cell parameters associated with nuclear morphology, mitochondrial damage and caspase 3/7 activation-indicative of prelethal cytotoxic effects and representative of different mechanism of toxicity-were measured by HCS at single cell level. Finally, cells were fixed and stained with beta III tubulin antibody for measuring the neurite outgrowth.
Primary cultures of cortical neurons were isolated from cerebral cortices of Sprague-Dawley rat foetuses at embryonic day 18. Brains were removed and after removing the meninges, the tissues were dissected under a binocular microscope. Neurons were enzymatically dispersed by trypsin 0.2% and DNAse […] digestion for 10 min at 37° C., plated in poly-L-lysine wells and incubated with B27 supplemented neurobasal medium.
Cortical neurons of 18 days old embryonic rats were plated in poly-l-lysine coated 96-well plates (30.000 cells per well). Cells were maintained in neurobasal medium supplemented with B-27 component for 5 days at 37° C. in a humidified 5% CO2 atmosphere. At day 5, cells were subjected to oxygen glucose deprivation (OGD) for 2 hours at 37° C. The cultures were placed in an aerobic chamber (Billops-Rothenberg) and incubated in neurobasal medium lacking glucose and B27 factor, and aerated with an anaerobic gas mixture (94.7% N2, 5% CO2, 0.3% O2) to remove residual oxygen. Control cultures were kept in the original neurobasal medium but were submitted to the anaerobic conditions. At the end of the OGD conditions, the cells were removed from the anaerobic chamber, the OGD medium was replaced with neurobasal medium containing glucose, and the cells were incubated for an additional 24 h. The test compounds were added to the neurons eighteen hours prior to the OGD induction and maintained for 1 h. Replicate cultures were treated as described above with MK801 as positive control of neuroprotection.
Compound neuroprotective potential was determined by HCS analysis, which included the following endpoints: plasma membrane integrity, cell viability, alterations of mitochondrial membrane potential, caspase 3/7 activation and neurite outgrowth.
(§1) To determine the integrity of the plasma membrane, supernatants were collected 24 h after treatments and LDH assay was performed following manufacturer's instructions.
(§2) Cell number was determined by hoechst 33342 nucleic acid staining. This dye allows a sensitive cell number determination by fluorescence microscopy. Cells were stained with 5 μg/ml, washed 3 times and measured at 380 nm/460 nm Ex/Em.
Mitochondrial activity was determined using TMRM, a lipophilic cationic fluorescent probe that freely crosses the plasma membrane and accumulates within mitochondria, depending on their membrane potential. Cells were stained with 50 nM tetramethyl rhodamine methyl ester-TMRM, washed 3 times and measured at 555 nm/645 nm Ex/Em. TMRM fluorescence intensity in cytosolic regions around the nucleus was registered. […]

mouse cardiomyocytes = assay type: cell-based; conditions: NAC 100 μM
Method: In vitro ischemic injury was induced in mouse neonatal primary cardiomyocyte culture by oxygen-glucose deprivation for 18 hours. Cardiomyocytes were incubated with two concentrations of the compounds during 4 hours prior to the OGD induction. The test compounds were also present during the OGD insult and 24 h-recovery period. NAC was used as positive control of cardioprotection. After treatments, cell viability was measured with WST-8 and ATP, and supernatants were collected to measure LDH for studying plasma membrane integrity. Cells were simultaneously loaded with two fluorescent dyes showing optical compatibility, and were then analyzed with BD Pathway 855 (Becton Dickinson). By using the technology of HCS, cell parameters associated with nuclear morphology and caspase 3/7 activation (indicative of pre-lethal cytotoxic effects and representative of different mechanism of toxicity) were measured at the single cells level, which allows high-throughput screening. Data were expressed as means±SD of three separate wells and individual comparisons were made with Student's test (SigmaPlot 9.0 program).
Primary cultures of cardiomyocytes were prepared from the hearts of Swiss mouse neonates P0-P2. Hearts were removed and enzymatically dissociated following instructions from Neonatal heart Dissociation Kit of Miltenyi Biotec. Then cardiomyocytes were isolated following also the instructions of Miltenyi biotec. Briefly, cells were isolated by depletion of non-target cells. Non-target cells (fibroblasts and endothelial cells) are directly magnetically labeled with a cocktail of monoclonal antibodies conjugated with MACS microbeads. The magnetically labeled non-target cells were depleted by retaining them within an MCS column in the magnetic fields of a MACS separator, while the unlabeled cardiomyocytes passed through the column. Then, cardiomyocytes were counted and plated on fibronectin-coated wells with cardiac myocyte complete medium (1% CMGS component, 1% penicillin/streplomycina and 5% FBS).
Cardiomyocytes from P0-P2 days mice were plated in fibronectin coated 96-well plates with a number of 30.000 cells per well. Cells were maintained in cardiac myocyte complete medium (Cardiac myocyte medium, growth factors, 5% FBS, 1% penicillin/streptomycin) for 1 day at 37° C. in a humidified 5% CO2 atmosphere. At day 2, cells were washed and treated with compounds in complete medium 4 h prior to being subjected to oxygen glucose deprivation for 18 hours at 37° C. The cultures were placed in an aerobic chamber (Billops-Rothenberg) and incubated with DMEM medium lacking glucose and growth factors, and aerated with an anaerobic gas mix (94.7% N2, 5% CO2, 0.3% O2) to remove residual oxygen. Control cells were kept in the original cardiac myocyte medium but under anaerobic conditions. At the end of the OGD insult the cells were removed from the anaerobic chamber, the OGD medium was replaced with cardiac myocyte medium containing glucose without growth factors, and the cells were incubated for additional 24 h. The test compounds were also present during the OGD insult and the recovery period. Some cells were treated as described above with NAC 100 μM as positive control of cardioprotection.
as §1, §2
Caspase 3/7 activation was determined using The CellEvent® Caspase-3n Green Detection Reagent which is intrinsically a non-fluorescent peptide that inhibits the ability of the dye to bind to DNA. However, after […] activation in apoptotic cells, the peptide is cleaved allowing the dye to bind to DNA producing a bright, fluorogenic response. […]

physchem = conditions: 20 °C, thermodynamic from solid
[3] = test system: male Syrian Golden Hamsters
Method: Twenty-four (24) male Syrian Golden Hamsters were used in the study. Mucositis was induced by giving an acute radiation dose of 40 Gy directed to the left buccal cheek pouch on Day 0. Mucositis was evaluated clinically starting on Day 6 and continuing on alternate days until Day 28.
Mucositis was scored visually by comparison to a validated photographic scale, ranging from 0 for normal, to 5 for severe ulceration (clinical scoring). In descriptive terms, this scale is defined as described in Table 7 below: […]
A mucositis score of 3 or greater indicates ulcerative mucositis, a clinically significant threshold.
Statistical significance of observed differences was calculated using chi-squared analysis.
An analysis of the severity of mucositis was performed using the Mann-Whitney rank sum analysis to compare the visual mucositis scores for Groups 2 and 3 to the vehicle control group (Group 1) on each day of the analysis. In this analysis, 2 consecutive days of significant reduction in the mucositis score are generally required before it is regarded as clinically meaningful.
The significance of group differences observed in daily mucositis scores was determined using the Mann-Whitney rank sum test. This nonparametric statistic is appropriate for the visual mucositis scoring scale. The p-values for each calculation are shown. “x” denotes significant difference in mucositis scores. “y” denotes increase in comparison to vehicle Group (improvement). “z” denotes decrease.
“y” denotes an increase in comparison to vehicle Group, “z” denotes decrease (improvement).

[4] = Examples 10, 11, 12.5-800 μg/mL, procedure of Example 9
[5] = entire study duration, of 192 animal days

O=C1C(O)=C([C@H]2CC[C@H](c3ccc(Cl)cc3)CC2)C(=O)c2ccccc21 [Atovaquone, trans-2-[4-(4-chlorophenyl)cyclohexyl]-3-hydroxy-1,4-naphthalenedione]
effect on proliferation/survival of H2O2-induced oxidatively stressed HGEPp cells ([1]; Example 9, all doses tested 12.5-800 μg/mL (each), 24 hr pretreatment, 0.3 mM H2O2 4 h): no impact | effect on ROS levels in H2O2 challenged HGEPp cells ([2]; Example 9, 50, 100, 200 μg/mL, 24 hr pretreatment): does not change ROS levels

COc1ccc2cc3[n+](cc2c1OC)CCc1cc2c(cc1-3)OCO2 [Berberine]
effect on proliferation/survival of H2O2-induced oxidatively stressed HGEPp cells [1, 4]: little or no impact

OO [H2O2, hydrogen peroxide]
reduction in cell number ([1]; 0.3 mM H2O2, 4 h): 48%

C[C@]12N[C@H](Cc3ccccc31)c1ccccc12 [MK801]
normalization of plasma membrane integrity (LDH release) (rat cortical neurons): 33% | prevention of OGD-induced apoptosis (caspase 3/7 activation) (rat cortical neurons; 24 h after OGD): 25% | prevention of OGD-induced mortality (cell number, hoechst 33342) (rat cortical neurons; 24 h after OGD): 26% | re-establishment of mitochondrial membrane potential (TMRM) (rat cortical neurons; 24 hours post-exposure): 13% | re-establishment of neurite outgrowth affected by OGD (rat cortical neurons; average length, beta III tubulin): 94% | CASPASE score (rat cortical neurons; Table 16): 1 (1 (variation 20-40%)) | HOECHST score (cell number) (rat cortical neurons; Table 16): 1 (1 (variation 20-40%)) | LDH score (rat cortical neurons; Table 16): 1 (1 (variation 20-40%)) | Neurite score (rat cortical neurons; Table 16): 3 (3 (variation 60-100%)) | Neuroprotection degree (rat cortical neurons; Table 16): moderate (moderate (5-7)) | TMRM score (rat cortical neurons; Table 16): 0 (0 (no neuroprotection or variation lower than 20%)) | Total (sum of individual scores) (rat cortical neurons; Table 16): 6

CN(C)C(=N)N=C(N)N [Metformin]
effect on proliferation/survival of H2O2-induced oxidatively stressed HGEPp cells [1, 4]: little or no impact

CC(=O)N[C@@H](CS)C(=O)O [NAC]
normalization of OGD-induced LDH release (mouse cardiomyocytes): 26% | prevention of OGD-induced apoptosis (caspase 3/7) (mouse cardiomyocytes): 31% | protection against OGD-induced reduction in ATP levels (mouse cardiomyocytes): 21% | prevention of OGD-induced mortality (cell number) (mouse cardiomyocytes; 24 h after exposure): 21% | ATP score (mouse cardiomyocytes; Table 18): 1 (1 (variation 20-40%)) | CASPASE score (mouse cardiomyocytes; Table 18): 1 (1 (variation 20-40%)) | HOECHST score (cell number) (mouse cardiomyocytes; Table 18): 1 (1 (variation 20-40%)) | LDH score (mouse cardiomyocytes; Table 18): 1 (1 (variation 20-40%)) | Neuroprotection degree (mouse cardiomyocytes; Table 18): Moderate | Total (sum of individual scores) (mouse cardiomyocytes; Table 18): 4

Cc1c(-c2cnccn2)ssc1=S [Neat oltipraz, 4-methyl-5-(pyrazin-2-yl)-3H-1,2-dithiole-3-thione]
solubility (physchem; 2% simulated intestinal fluid, fassgf or other biorelevant): 15.8 µg/mL (≈ 69.8 µM) | solubility (physchem; water): 3.1 µg/mL (≈ 13.7 µM) | day of peak mean mucositis score ([3]; 40 Gy Day 0, 5 mg/mL, 0.2 mL topical BID, Days −3 to 28): 16 days | peak mean mucositis score ([3]; 40 Gy Day 0, 5 mg/mL, 0.2 mL topical to left cheek pouch BID, Days −3 to 28): 3.25±0.11 | Percent Ulceration by Day (Score ≥3) ([3]; Day 6): 0.0% | Percent Ulceration by Day (Score ≥3) ([3]; Day 8): 0.0% | Percent Ulceration by Day (Score ≥3) ([3]; Day 10): 0.0% | Percent Ulceration by Day (Score ≥3) ([3]; Day 12): 50.0% | Percent Ulceration by Day (Score ≥3) ([3]; Day 14): 100.0% | Percent Ulceration by Day (Score ≥3) ([3]; Day 16): 100.0% | Percent Ulceration by Day (Score ≥3) ([3]; Day 18): 100.0% | Percent Ulceration by Day (Score ≥3) ([3]; Day 20): 100.0% | Percent Ulceration by Day (Score ≥3) ([3]; Day 22): 100.0% | Percent Ulceration by Day (Score ≥3) ([3]; Day 24): 50.0% | Percent Ulceration by Day (Score ≥3) ([3]; Day 26): 25.0% | Percent Ulceration by Day (Score ≥3) ([3]; Day 28): 25.0% | % Days ≥3 ([3]; entire study duration): 54.17% | Days <3 (animal days with mucositis score <3) [3, 5]: 88 | Days ≥3 (animal days with mucositis score ≥3) [3, 5]: 104 | effect on H2O2-induced decrease in HGEPp survival ([1]; Example 7, 50 to 800 μg/ml, 24 h pretreatment, then 0.3 mM H2O2 4 h): promoted cell proliferation and reduced H2O2-induced decrease in HGEPp survival | effect on ROS levels in H2O2 treated HGEPp cells ([2]; Example 7, 100 ug/ml and 200 ug/ml, 24 h pretreatment, P<0.05 versus PC): significantly reduced ROS levels
